Assay: in vitro
Description: The spheron component peptides in phosphate buffered saline (PBS) were incubated alone and in combination into glioma cell cultures and neuroblastoma cell cultures. Controls of
Cryopreserved glioma and neuroblastoma cells were acquired from the American Type Culture Collection (ATCC), Virginia. Cells were thawed and diluted in suspension media and centrifuged at 700 rpm for 7 minutes at 4 C. Cell pellets then were resuspended in CACO-2 media and cultured in standard 75 or 175 cm^2 flasks at 37 C, 5% CO(2) until approximately confluent. The cells were then trypsinized and resuspended in CACO-2 media to achieve a final cell density of 1.5×10^5 cells/mL. 50 μL aliquots per sample were then added per well to 96 well plates.
For Experiment I, 50 μL of either PBS (phosphate buffered solution) (negative control), 100 μM tamoxifen in phosphate buffered saline PBS (positive control), or test article were added to each sample culture.
An MTT assay is a sensitive assay for the measurement of cell proliferation based upon the reduction of the tetrazolium salt 3,[4,5-dimetylthiazol-2-yl]-2,5-diphenyltetrazolium bromide (MTT). […] Plates were then agitated gently for 1 minute on a rotary shaker and the difference between emission absorbance of 570 nm and background absorbance of 650 nm was measured spectrophotometrically on an automated plate reader. […]

CC/C(=C(\c1ccccc1)c1ccc(OCCN(C)C)cc1)c1ccccc1 [Tamoxifen, tamoxifen]
viability at 4 days, 100 µM: 63%

— patent US20040002460A1, “Spheron components useful in determining compounds capable of treating symptoms of Alzheimer's disease, and treatments and animal models produced therefrom” (priority 2002, published 2004)
